Measurements reported in patent US20240109881A1, “Heteroaryl Compounds as Ligand Directed Degraders of IRAK4” (Bristol-Myers Squibb Company, priority 2022, published 2024).

Target: T1, IRAK4 (Homo sapiens, UniProt Q9NWZ3)
T1 construct: endogenous in cells; host or cells: THP-1 cells
T1 sequence (Q9NWZ3 1-460): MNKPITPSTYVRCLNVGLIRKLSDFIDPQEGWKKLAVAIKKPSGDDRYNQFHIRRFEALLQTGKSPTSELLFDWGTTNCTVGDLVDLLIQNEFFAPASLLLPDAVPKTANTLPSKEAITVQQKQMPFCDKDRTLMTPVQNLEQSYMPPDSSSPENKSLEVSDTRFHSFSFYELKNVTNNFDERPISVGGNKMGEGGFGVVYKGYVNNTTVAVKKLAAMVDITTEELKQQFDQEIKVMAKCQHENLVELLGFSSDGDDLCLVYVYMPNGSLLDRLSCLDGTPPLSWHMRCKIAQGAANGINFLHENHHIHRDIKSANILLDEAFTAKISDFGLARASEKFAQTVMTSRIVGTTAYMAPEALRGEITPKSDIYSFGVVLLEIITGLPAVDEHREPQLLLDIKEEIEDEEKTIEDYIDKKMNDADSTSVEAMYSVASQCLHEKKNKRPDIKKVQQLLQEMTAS
Test: LVL THP1 HTRF (THP1 Homogeneous Time Resolved Fluorescence)
Format: cell-based
Settings: THP1 cells, 18 h incubation with compound; for DC50: read-out: LVL THP1 HTRF EC50
Protocol: Cell culture media was prepared in a tissue culture hood in a sterile environment by adding 10% FBS and 1% Penicillin Streptomycin to 500 mL no phenol red RPMI 1640 media. The media was filtered through a Nalgene Bottle Top Filter and stored at 4° C.
For Homogenous Time Resolved Fluorescence (HTRF) assays, a Cisbio HTRF kit was used, which included: Lysis Buffer #1 4×, Blocking Reagent #3 100×, 20× Antibody 1 (Anti-IRAK4 d2), 20× Antibody 2 (Anti-IRAK4 k), and Detection Buffer.
The THP1 plates were prepared by the following method. For each dosing plate, a duplicate for CTG assay was prepared. Two THP-1 T-175 flasks could be used to plate one 384 well plate. The cells were collected from two T-175 flasks into 200 mL centrifuge tubes and spun down at 1200 rpm for 10 min. The supernatant was removed completely and cells were resuspended in 7.5 mL cell culture media. To 5 μL of the cell suspension was added 25 μL of media and 30 μL of Trypan Blue stain. The cells were counted using countess (automated cell counter, Thermo Fisher Scientific) twice and the viability and live cell count was recorded. The actual cell count was […] the live cell count. Based on the count, a cell suspension was prepared in colorless RPMI media for a final concentration of 7.5e6 cells/mL. Using Standard cassette multidrop combi, 20 μL of the 7.5e6 cells/mL cell stock was added to entire 384 well plate but for top half of column 1 (negative control) The multidrop combi was always primed to achieve a steady flow and washed after use with 20 mL de-ionized water followed by 20 mL alcohol. The cells were incubated in 5% CO2 incubator at 37° C.
Dosing was conducted using the following method. To dose assay plates and CTG plate was added 20 nL of compounds in DMSO using Echo (Beckman Coulter), and the plates were incubated at 37° C. for 18 h. The compound plates were spun at 1200 rpm for 1 min before dosing. The compound plate was sealed and properly stored during incubation.
After dosing, an HTRF assay was conducted using the following method. The treatment plates (IRAK4_HTRF) were centrifuged at 600 g for 10 min. Using CyBio Felix, Automated liquid handler (Analytikjena), 13 μL cell culture media was removed. To all columns, 7.5 μL lysis buffer was added, and an additional 7.5 μL of lysis buffer was added to column 1(top half, negative control). The plate was incubated on a shaker at room temperature for 2 h. The plate was spun down at 600 g for 5 min. Custom 20×IRAK4 Antibody obtained from CISBIO Anti-IRAK4-d2 (acceptor Ab) and Anti-IRAK4-K (donor Ab) were diluted to 1× antibody mix Using a multichannel repeater, 4 μL of 1× antibody mix was added to each wellThe plate was spun down at 600 g for 5 min and incubated in the dark at room temperature for 18 h The next day (after 18 hrs), HTRF assay plate was spun down at 600 g for 5 min and read at 665/615 nm using a Envision plate reader.

| SMILES | LVL THP1 HTRF YMIN [%] | DC50 [nM] |
| --- | --- | --- |
| C[C@H](C#N)Nc1cc(-n2ncc3cc(C#N)cnc32)ncc1-n1cc([C@H]2CC[C@H](CCN3CCN(c4ccc(C5(C)CCC(=O)NC5=O)cc4)CC3)CC2)nn1 (single isomer, unassigned) [P-204] | 1.8 | 7 |
| C[C@H](C#N)Nc1cc(-n2ncc3cc(C#N)cnc32)ncc1-n1cc(C2CCC(CCN3CCN(c4ccc(C5CCC(=O)NC5=O)cc4)C4COCC43)CC2)nn1 (single isomer, unassigned) [P-235] | 2.6 | 29 |
| C[C@H](C#N)Nc1cc(-n2ncc3cc(C#N)cnc32)ncc1-n1cc(C2CCC(CCN3CCN(c4ccc(C5CCC(=O)NC5=O)cc4)C4COCC43)CC2)nn1 (single isomer, unassigned) [P-237] | 2.8 | 7 |
| C[C@H](C#N)Nc1cc(-n2ncc3cc(C#N)c(N)nc32)ncc1C(=O)N[C@H]1CC[C@H](CCN2CCN(c3ccc([C@@]4(C)CCC(=O)NC4=O)cn3)[C@@H](C)C2)CC1 (single isomer, unassigned) [P-249] | 1.9 | 2.3 |
| C[C@H](C#N)Nc1cc(-n2ncc3cc(C#N)c(N)nc32)ncc1-n1cc([C@H]2CC[C@H](CCN3[C@@H](C)CN(c4ccc([C@@]5(C)CCC(=O)NC5=O)cn4)C[C@@H]3C)CC2)nn1 (single isomer, unassigned) [P-252] | 1.7 | 5.4 |
| C[C@H](C#N)Nc1cc(-n2ncc3cc(C#N)c(N)nc32)ncc1-n1cc([C@H]2CC[C@H](CCN3[C@H](C)CN(c4ccc([C@@]5(C)CCC(=O)NC5=O)cn4)C[C@H]3C)CC2)nn1 (single isomer, unassigned) [P-253] | 9.4 | 48.7 |
| C[C@H](C#N)Nc1cc(-n2ncc3cc(C#N)c(N)nc32)ncc1-n1cc([C@H]2CC[C@H](CCN3[C@@H](C)CN(c4ccc([C@@]5(C)CCC(=O)NC5=O)cn4)C[C@@H]3C)CC2)nn1 (single isomer, unassigned) [P-254] | 91.0 | 21.7 |
| C[C@H](C#N)Nc1cc(-n2ncc3cc(C#N)c(N)nc32)ncc1-n1cc([C@H]2CC[C@H](CCN3[C@H](C)CN(c4ccc([C@@]5(C)CCC(=O)NC5=O)cn4)C[C@H]3C)CC2)nn1 (single isomer, unassigned) [P-255] | 90.4 | 12.4 |
| C[C@H](C#N)Nc1cc(-n2ncc3cc(C#N)c(N)nc32)ncc1-n1cc([C@H]2CC[C@H](CCN3CCN(c4ccc([C@@]5(C)CCC(=O)NC5=O)nc4)[C@@H](C)C3)CC2)nn1 (single isomer, unassigned) [P-257] | 34.7 | 92.8 |
| C[C@H](C#N)Nc1cc(-n2ncc3cc(C#N)c(N)nc32)ncc1-n1cc([C@H]2CC[C@H](CCN3CCN(c4ccc([C@@]5(C)CCC(=O)NC5=O)cn4)[C@@H](C)C3)CC2)nn1 (single isomer, unassigned) [P-258] | 2.0 | 6.9 |
| C[C@H](C#N)Nc1cc(-n2ncc3cc(C#N)c(N)nc32)ncc1-n1cc([C@H]2CC[C@H](CCN3CCN(c4ccc([C@@]5(C)CCC(=O)NC5=O)cn4)[C@@H](C)C3)CC2)nn1 (single isomer, unassigned) [P-259] | 89.5 | 26.1 |
| C[C@H](C#N)Nc1cc(-n2ncc3cc(C#N)c(N)nc32)ncc1-n1cc([C@H]2CC[C@H](CCN3CCN(c4ccc([C@@]5(C)CCC(=O)NC5=O)cn4)[C@H](C)C3)CC2)nn1 (single isomer, unassigned) [P-262] | 8.7 | 17.1 |
| C[C@H](C#N)Nc1cc(-n2ncc3cc(C#N)c(N)nc32)ncc1-n1cc([C@H]2CC[C@H](CCN3CCN(c4cnc([C@@]5(C)CCC(=O)NC5=O)nc4)CC3)CC2)nn1 (single isomer, unassigned) [P-263] | 9.0 | 25.7 |
| C[C@H](C#N)Nc1cc(-n2ncc3cc(C#N)c(N)nc32)ncc1-n1cc([C@H]2CC[C@H](CCN3CCN(c4cnc([C@@]5(C)CCC(=O)NC5=O)nc4)CC3)CC2)nn1 (single isomer, unassigned) [P-264] | 94.6 | 7.2 |
| C[C@H](C#N)Nc1cc(-n2ncc3cc(C#N)c(N)nc32)ncc1-n1cc([C@H]2CC[C@H](CCN3CCN(c4ccc([C@@]5(C)CCC(=O)NC5=O)cn4)CC3)CC2)nn1 (single isomer, unassigned) [P-265] | 93.2 | 1000 |
| C[C@H](C#N)Nc1cc(-n2ncc3cc(C#N)c(N)nc32)ncc1-n1cc([C@H]2CC[C@H](CCN3CCN(c4cnc([C@@]5(C)CCC(=O)NC5=O)cn4)CC3)CC2)nn1 (single isomer, unassigned) [P-267] | 54.7 | 94.7 |
| C[C@H](C#N)Nc1cc(-n2ncc3cc(C#N)c(N)nc32)ncc1-n1cc([C@H]2CC[C@H](CCN3CCN(c4cnc([C@@]5(C)CCC(=O)NC5=O)cn4)CC3)CC2)nn1 (single isomer, unassigned) [P-268] | −0.2 | 2.1 |
| C[C@H](C#N)Nc1cc(-n2ncc3cc(C#N)cnc32)ncc1C(=O)N[C@H]1CC[C@H](CCN2CCN(c3ccc([C@@]4(C)CCC(=O)NC4=O)cn3)[C@@H](C)C2)CC1 (single isomer, unassigned) [P-276] | 6.0 | 11.4 |
| C[C@H](C#N)Nc1cc(-n2ncc3cc(C#N)cnc32)ncc1-n1cc([C@H]2CC[C@](O)(CCN3CCN(c4ccc([C@@]5(C)CCC(=O)NC5=O)nc4)CC3)CC2)nn1 (single isomer, unassigned) [P-280] | 47.7 | 107 |
| C[C@H](C#N)Nc1cc(-n2ncc3cc(C#N)cnc32)ncc1-n1cc([C@H]2CC[C@H](CCN3C[C@@H]4CN(c5ccc([C@@]6(C)CCC(=O)NC6=O)cc5)C[C@@H]4C3)CC2)nn1 (single isomer, unassigned) [P-281] | 24.0 | 106 |
| C[C@H](C#N)Nc1cc(-n2ncc3cc(C#N)cnc32)ncc1-n1cc([C@H]2CC[C@H](CCN3CC[C@H](c4ccc([C@@]5(C)CCC(=O)NC5=O)cc4)C[C@H]3C)CC2)nn1 (single isomer, unassigned) [P-282] | 1.0 | 3.4 |
| C[C@H](C#N)Nc1cc(-n2ncc3cc(C#N)cnc32)ncc1-n1cc([C@H]2CC[C@H](CCN3CC[C@@H](c4ccc([C@@]5(C)CCC(=O)NC5=O)cc4)C[C@@H]3C)CC2)nn1 (single isomer, unassigned) [P-283] | 5.2 | 5.7 |
| C[C@H](C#N)Nc1cc(-n2ncc3cc(C#N)cnc32)ncc1-n1cc([C@H]2CC[C@H](CCN3CC[C@H]4[C@@H]3CCN4c3ccc([C@@]4(C)CCC(=O)NC4=O)nc3)CC2)nn1 (single isomer, unassigned) [P-286] | 6.6 | 8.5 |
| C[C@H](C#N)Nc1cc(-n2ncc3cc(C#N)cnc32)ncc1-n1cc([C@H]2CC[C@H](CCN3CC[C@H]4[C@@H]3CCN4c3ccc([C@@]4(C)CCC(=O)NC4=O)nc3)CC2)nn1 (single isomer, unassigned) [P-287] | 51.0 | 1350 |
| C[C@H](C#N)Nc1cc(-n2ncc3cc(C#N)cnc32)ncc1-n1cc([C@H]2CC[C@H](CCN3CC[C@H]4[C@@H]3CCN4c3ccc([C@@]4(C)CCC(=O)NC4=O)nc3)CC2)nn1 (single isomer, unassigned) [P-288] | 4.7 | 7.1 |
